{"source": "patent US9028845B2", "about": "“Chimeric immunomodulatory compounds and methods of using the same-IV” (Dynavax Technologies Corporation, priority 2001, dated 2015)", "system": "human PBMCs", "assay": "Human PBMC cytokine response assay (IFN-γ and IFN-α in cell-free medium by ELISA), with or without cPLGA;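 for IFN-α (pg/ml) mean: 20 µg/mL compound for 24 hours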;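 for IFN-γ (pg/ml) mean: 20 µg/mL compound for 24 hours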", "format": "cell-based", "settings": "for IFN-a / IFN-g / IFN-a (pg/ml) mean / IFN-g (pg/ml) mean / IFN-a (pg/ml) ×2 / IFN-g (pg/ml) ×4: Table 15; for IFN-a (pg/ml) mean / IFN-g (pg/ml) mean: mean of donors 28185-28188; for IFN-a (pg/ml) ×2: mean ×2; for IFN-g (pg/ml) ×4: mean ×4; for immunomodulatory activity (IFN-γ / IFN-α secretion), in words: used alone (no cPLGA)", "key": {"[1]": {"settings": "Table 24, mean of donors 28234-28237"}, "[2]": {"settings": "mean of donors 110, 112, 119, 120, Table 14"}}, "note": "“Also recorded” adds a separate entry of the source."}
{"substance": "5′-TCCA-3′-C3-5′-TGACGTT-3′-C3-5′-CCTGATGCT-3′ [Compound C-88]", "values": [{"measurement": "IFN-α", "setting": "Table 24, donor 28234", "result": 95, "unit": "pg/mL"}, {"measurement": "IFN-γ", "setting": "Table 24, donor 28234", "result": 5, "unit": "pg/mL"}, {"measurement": "IFN-α", "setting": "Table 24, donor 28235", "result": 16, "unit": "pg/mL"}, {"measurement": "IFN-γ", "setting": "Table 24, donor 28235", "result": 21, "unit": "pg/mL"}, {"measurement": "IFN-α", "setting": "Table 24, donor 28236", "result": 212, "unit": "pg/mL"}, {"measurement": "IFN-γ", "setting": "Table 24, donor 28236", "result": 17, "unit": "pg/mL"}, {"measurement": "IFN-α", "setting": "Table 24, donor 28237", "result": 111, "unit": "pg/mL"}, {"measurement": "IFN-γ", "setting": "Table 24, donor 28237", "result": 477, "unit": "pg/mL"}, {"measurement": "IFN-α mean", "setting": "[1]", "result": 109, "unit": "pg/mL"}, {"measurement": "IFN-γ mean", "setting": "[1]", "result": 130, "unit": "pg/mL"}]}
{"substance": "5′-TCCATTT-3′-HEG-5′-AACGTTC-3′-HEG-5′-TGACGTT-3′ [Compound C-61]", "values": [{"measurement": "IFN-α", "setting": "Table 13, donor 28156", "result": 3, "unit": "pg/mL"}, {"measurement": "IFN-γ", "setting": "Table 13, donor 28156", "result": 92, "unit": "pg/mL"}, {"measurement": "IFN-α", "setting": "Table 13, donor 28157", "result": 0, "unit": "pg/mL"}, {"measurement": "IFN-γ", "setting": "Table 13, donor 28157", "result": 179, "unit": "pg/mL"}, {"measurement": "IFN-α", "setting": "Table 13, donor 28158", "result": 47, "unit": "pg/mL"}, {"measurement": "IFN-γ", "setting": "Table 13, donor 28158", "result": 35, "unit": "pg/mL"}, {"measurement": "IFN-α", "setting": "Table 13, donor 28159", "result": 0, "unit": "pg/mL"}, {"measurement": "IFN-γ", "setting": "Table 13, donor 28159", "result": 63, "unit": "pg/mL"}, {"measurement": "IFN-α mean", "setting": "Table 13, mean of donors", "result": 13, "unit": "pg/mL"}, {"measurement": "IFN-γ mean", "setting": "Table 13, mean of donors", "result": 92, "unit": "pg/mL"}, {"measurement": "IFN-γ induction when formulated with cPLGA, in words", "setting": "formulated with cPLGA", "result": "induced IFN-γ when formulated with cPLGA"}]}
{"substance": "5′-TCG-3′-(ab)3-5′-T-3′ [Compound C-91]", "values": [{"measurement": "IFN-a", "setting": "donor 28185", "result": 9, "unit": "pg/mL"}, {"measurement": "IFN-g", "setting": "donor 28185", "result": 3, "unit": "pg/mL"}, {"measurement": "IFN-a", "setting": "donor 28186", "result": 46, "unit": "pg/mL"}, {"measurement": "IFN-g", "setting": "donor 28186", "result": 4, "unit": "pg/mL"}, {"measurement": "IFN-a", "setting": "donor 28187", "result": 37, "unit": "pg/mL"}, {"measurement": "IFN-g", "setting": "donor 28187", "result": 6, "unit": "pg/mL"}, {"measurement": "IFN-a", "setting": "donor 28188", "result": 4, "unit": "pg/mL"}, {"measurement": "IFN-g", "setting": "donor 28188", "result": 7, "unit": "pg/mL"}, {"measurement": "activity when formulated with cPLGA, in words", "setting": "formulated with cPLGA", "result": "significant activity when formulated on cPLGA"}, {"measurement": "IFN-a (pg/ml) mean", "result": 24, "unit": "pg/mL"}, {"measurement": "IFN-g (pg/ml) mean", "result": 5, "unit": "pg/mL"}, {"measurement": "IFN-a (pg/ml) ×2", "result": 48, "unit": "pg/mL"}, {"measurement": "IFN-g (pg/ml) ×4", "result": 20, "unit": "pg/mL"}, {"measurement": "immunomodulatory activity (IFN-γ / IFN-α secretion), in words", "result": "neither CIC was active on its own"}]}
{"substance": "5′-TCG-3′-HEG-5′-T-3′ [Compound C-68]", "values": [{"measurement": "IFN-a", "setting": "donor 28185", "result": 4, "unit": "pg/mL"}, {"measurement": "IFN-g", "setting": "donor 28185", "result": 0, "unit": "pg/mL"}, {"measurement": "IFN-a", "setting": "donor 28186", "result": 13, "unit": "pg/mL"}, {"measurement": "IFN-g", "setting": "donor 28186", "result": 4, "unit": "pg/mL"}, {"measurement": "IFN-a", "setting": "donor 28187", "result": 25, "unit": "pg/mL"}, {"measurement": "IFN-g", "setting": "donor 28187", "result": 2, "unit": "pg/mL"}, {"measurement": "IFN-a", "setting": "donor 28188", "result": 4, "unit": "pg/mL"}, {"measurement": "IFN-g", "setting": "donor 28188", "result": 1, "unit": "pg/mL"}, {"measurement": "IFN-a (pg/ml) mean", "result": 11, "unit": "pg/mL"}, {"measurement": "IFN-g (pg/ml) mean", "result": 2, "unit": "pg/mL"}, {"measurement": "IFN-a (pg/ml) ×2", "result": 23, "unit": "pg/mL"}, {"measurement": "IFN-g (pg/ml) ×4", "result": 7, "unit": "pg/mL"}, {"measurement": "immunomodulatory activity (IFN-γ / IFN-α secretion), in words", "result": "neither CIC was active on its own"}]}
{"substance": "5′-TCG-3′-HEG-5′-TCG-3′-HEG-5′-TCG-3′-HEG-5′-TCG-3′-HEG-5′-TCG-3′-HEG-5′-TCG-3′ [Compound C-32]", "values": [{"measurement": "IFN-α", "setting": "Table 9, donor 28089", "result": 285, "unit": "pg/mL"}, {"measurement": "IFN-γ", "setting": "Table 9, donor 28089", "result": 0, "unit": "pg/mL"}, {"measurement": "IFN-α", "setting": "Table 9, donor 28090", "result": 31, "unit": "pg/mL"}, {"measurement": "IFN-γ", "setting": "Table 9, donor 28090", "result": 5, "unit": "pg/mL"}, {"measurement": "IFN-α", "setting": "Table 9, donor 28098", "result": 46, "unit": "pg/mL"}, {"measurement": "IFN-γ", "setting": "Table 9, donor 28098", "result": 11, "unit": "pg/mL"}, {"measurement": "IFN-α", "setting": "Table 9, donor 28099", "result": 59, "unit": "pg/mL"}, {"measurement": "IFN-γ", "setting": "Table 9, donor 28099", "result": 35, "unit": "pg/mL"}, {"measurement": "IFN-α mean", "setting": "Table 9, mean of donors", "result": 106, "unit": "pg/mL"}, {"measurement": "IFN-γ mean", "setting": "Table 9, mean of donors", "result": 13, "unit": "pg/mL"}, {"measurement": "IFN-α", "setting": "Table 10, donor 28042", "result": 0, "unit": "pg/mL"}, {"measurement": "IFN-γ", "setting": "Table 10, donor 28042", "result": 91, "unit": "pg/mL"}, {"measurement": "IFN-α", "setting": "Table 10, donor 28043", "result": 0, "unit": "pg/mL"}, {"measurement": "IFN-γ", "setting": "Table 10, donor 28043", "result": 19, "unit": "pg/mL"}, {"measurement": "IFN-α", "setting": "Table 10, donor 28044", "result": 8, "unit": "pg/mL"}, {"measurement": "IFN-γ", "setting": "Table 10, donor 28044", "result": 78, "unit": "pg/mL"}, {"measurement": "IFN-α", "setting": "Table 10, donor 28045", "result": 0, "unit": "pg/mL"}, {"measurement": "IFN-γ", "setting": "Table 10, donor 28045", "result": 17, "unit": "pg/mL"}, {"measurement": "IFN-α mean", "setting": "Table 10, mean of donors", "result": 2, "unit": "pg/mL"}, {"measurement": "IFN-γ mean", "setting": "Table 10, mean of donors", "result": 51, "unit": "pg/mL"}, {"measurement": "activity when formulated with cPLGA, in words", "setting": "formulated with cPLGA", "result": "more activity when formulated with cPLGA; also recorded: induced considerable IFN-γ and IFN-α when formulated with cPLGA"}, {"measurement": "immunomodulatory activity (IFN-γ / IFN-α secretion), in words", "result": "had activity when used alone"}]}
{"substance": "5′-TCGAACG-3′-HEG-5′-TCGAACG-3′-HEG-5′-TCGAACG-3′ [Compound C-50]", "values": [{"measurement": "IFN-α", "setting": "Table 10, donor 28042", "result": 36, "unit": "pg/mL"}, {"measurement": "IFN-γ", "setting": "Table 10, donor 28042", "result": 1324, "unit": "pg/mL"}, {"measurement": "IFN-α", "setting": "Table 10, donor 28043", "result": 137, "unit": "pg/mL"}, {"measurement": "IFN-γ", "setting": "Table 10, donor 28043", "result": 1292, "unit": "pg/mL"}, {"measurement": "IFN-α", "setting": "Table 10, donor 28044", "result": 193, "unit": "pg/mL"}, {"measurement": "IFN-γ", "setting": "Table 10, donor 28044", "result": 509, "unit": "pg/mL"}, {"measurement": "IFN-α", "setting": "Table 10, donor 28045", "result": 35, "unit": "pg/mL"}, {"measurement": "IFN-γ", "setting": "Table 10, donor 28045", "result": 192, "unit": "pg/mL"}, {"measurement": "IFN-α mean", "setting": "Table 10, mean of donors", "result": 100, "unit": "pg/mL"}, {"measurement": "IFN-γ mean", "setting": "Table 10, mean of donors", "result": 829, "unit": "pg/mL"}, {"measurement": "IFN-α", "setting": "donor 110, Table 14", "result": 716, "unit": "pg/mL"}, {"measurement": "IFN-γ", "setting": "donor 110, Table 14", "result": 1096, "unit": "pg/mL"}, {"measurement": "IFN-α", "setting": "donor 112, Table 14", "result": 84, "unit": "pg/mL"}, {"measurement": "IFN-γ", "setting": "donor 112, Table 14", "result": 264, "unit": "pg/mL"}, {"measurement": "IFN-α", "setting": "donor 119, Table 14", "result": 838, "unit": "pg/mL"}, {"measurement": "IFN-γ", "setting": "donor 119, Table 14", "result": 52, "unit": "pg/mL"}, {"measurement": "IFN-α", "setting": "donor 120, Table 14", "result": 636, "unit": "pg/mL"}, {"measurement": "IFN-γ", "setting": "donor 120, Table 14", "result": 48, "unit": "pg/mL"}, {"measurement": "IFN-α (pg/ml) mean", "setting": "[2]", "result": 569, "unit": "pg/mL"}, {"measurement": "IFN-γ (pg/ml) mean", "setting": "[2]", "result": 365, "unit": "pg/mL"}, {"measurement": "IFN-α induction, in words", "setting": "used alone", "result": "generated more IFN-α than CICs containing a 5′-TCGT-3′"}, {"measurement": "immunomodulatory activity (IFN-γ / IFN-α secretion), in words", "result": "more active than other CG-containing CICs"}]}
